For data set [1], the system named is human PBMC. The experiment in a line: IL-8 release in human PBMC (ELISA). In kind it is cell-based. How it is done:
In vitro activities in human peripheral blood mononuclear cells (PBMC). Human PBMC were isolated from buffy coats obtained from the San Diego Blood Bank (San Diego, Calif.) as described previously.^5,6 PBMC (1×10^6/mL) were incubated with various compounds in complete RPMI (Omega Scientific) for 18 h at 37° C., 5% CO2 and culture supernatants were collected. The levels of IL-8 in the supernatants were determined by ELISA (BD Biosciences).
(In general: An ELISA detects its analyte on a solid surface through an enzyme-linked reagent.)

The next data set has as its system HepG2 cells. The experiment in a line: MTT assay in HepG2 cells. In kind it is cell-based. The settings on record: compounds tested at 10 μM; normalized with OD570-650 of vehicle treatment; in % (unit assumed). Background: Tetrazolium assays rely on reduction of a dye to a coloured formazan, in cell work by metabolically active cells.
Data set [2] relates to human TLRs (TLR2, TLR3, TLR4/MD-2/CD14, TLR5, TLR7, TLR8 or TLR9). The experiment in a line: Human TLR-transfected HEK293 NF-κB SEAP reporter cell panel. It counts as cell-based. The settings on record: 10 μM, 20-24 h. How it is done: To identify the target receptor, we used HEK293 cells stably transfected with the following human TLRs (TLR2, TLR3, TLR4/MD-2/CD14, TLR5, TLR7, TLR8 or TLR9) along with an NF-κB activation reporter producing Secreted Alkaline Phosphatase (SEAP, FIG. 1A). To further confirm that TLR4 was indeed the receptor, compound 1a was assayed for IL-6 production in mBMDCs from wild type and TLR4 deficient mice (FIG. 1B). […] TLR4 signals through two distinct pathways, leading respectively to NF-κB dependent cytokines and type I interferon (IFN) production. Several naturally occurring TLR4 ligands and MPLA have been reported to require CD14 to activate the IFN regulatory pathway. The hTLR4 reporter cell line (FIG. 1A) also overexpresses hMD-2 and hCD14, which are TLR4 accessory proteins.
In vitro assays using TLR reporter cell lines. Murine or humanTLR4 HEK Blue™ cells (Invivogen, 2.5×10^4 cells per well of a 96 well plate), or NF-κB/SEAPorter™ HEK 293 cells (Imgenex, San Diego, Calif.) for human TLR2, TLR3, TLR5, TLR7, TLR8, or TLR9 (5×10^4 cells per well of 96 well plate) were incubated with graded doses of the test compound. […] Secreted alkaline phosphatase (SEAP) activity in the supernatants was determined by a colorimetric assay, using either the SEAPorter Assay Kit (Imgenex, San Diego, Calif.), with absorbance read at 405 nm, or QuantiBlue (Invivogen), with absorbance read at 630 nm. […]

The subject of data set [3] is mBMDC. The experiment in a line: IL-6 induction in mouse bone marrow derived dendritic cells (wild type or gene deficient). In kind it is cell-based. An excerpt: Animals. Seven to 9 week-old C57BL/6 (wild type, WT) and Cd14^−/− (C57BL/6 background) mice were purchased from the Jackson Laboratories (Bar Harbor, Mass.). Tlr4^−/− mice (C57BL/6 background) were a gift from Dr. Shizuo Akira (Osaka University, Japan) and were backcrossed for 10 generations onto the C57BL/6 background at University of California, San Diego (UCSD). MD-2^−/− mice (C57BL/6 background) were originally generated by Dr. K. Miyake (University of Tokyo, Tokyo, Japan) and were kindly provided by Dr. L. Hajjar (University of Washington, Seattle, Wash.). Human TLR4 transgenic mice on murine TLR4/MD-2 null C57BL/6 background were kindly provided by Dr. L. Hajjar.^3 All animal experiments were approved by the UCSD Institutional Animal Care and Use Committee.
In vitro cytokine induction in bone marrow derived dendritic cells (BMDC) and macrophages (BMDM). BMDC or BMDM were prepared from C57BL/6 mice as described.^4 BMDC or BMDM (10^5 cells per well) were plated in 96-well plates in 200 μl complete RPMI1640 (Omega Scientific, Tarzana, Calif.) supplemented with 10% fetal calf serum (Sigma Aldrich), 100 U/mL penicillin and 100 μg/mL streptomycin (Life Technologies). The cells were incubated with graded concentrations of the compounds for 18 h at 37° C., 5% CO2. After 18 h incubation, the cell culture supernatants were collected. LPS (100 ng/mL, L2654, E coli; B6, Sigma) or MPLA (1 μg/mL synthetic MPLA, Invivogen) were used as positive controls. The levels of IL-6 or IP-10 in the culture supernatants were determined by ELISA (BD Biosciences, La Jolla, Calif.).^5 Finally, all levels of cytokine release were normalized to those of LPSstimulation within each experiment, set at 100.

Data set [4] has as its system mBMDC. The experiment in a line: Co-stimulatory molecule expression in CD11c+ mBMDC (flow cytometry). It counts as cell-based, mouse. The settings on record: CD11c+ population. How it is done: (§1) FIG. 2. Compound 1a induces type I IFN and expression of co-stimulatory molecules. A) Human PBMC were incubated with compound 1a (10 μM), LPS (10 ng/mL), or vehicle overnight. The release of type I IFN in the culture supernatants was measured by luciferase release in L929-ISRE reporter cells. Data shown are mean±SEM of triplicates. B) Compound 1a- or vehicle-treated wild type or Tlr4^−/−mBMDC were stained for CD11c and either CD40, CD80, or CD86. The expression levels of CD40, CD80, or CD86 were evaluated in the gated CD11c^+ population. DMSO 0.5% served as the vehicle control. C) Human PBMC were incubated with compound 1a (5 μM) overnight. CD80 and CD83 expression in gated CD11c^+ HLA-DR^+ population was analyzed by flow cytometer. Data are representative of two independent experiments showing similar results.
(§2) To evaluate whether treatment of DCs with this compound can induce maturation in these cells, mBMDC prepared from wild type or TLR4 deficient mice were exposed to compound 1a and then assayed for expression of co-stimulatory molecules CD40, CD80, and CD86 in the CD11c+ population (FIG. 2B). […] Induction of co-stimulatory molecules by compound 1a was also confirmed in human PBMC.
In general terms: A flow cytometer gives signals particle by particle.

Data set [5] deals with human PBMC. The experiment in a line: CD80 and CD83 expression in CD11c+ HLA-DR+ human PBMC (flow cytometry). The settings on record: 5 μM overnight; CD11c+HLA-DR+ gated population. It counts as cell-based. As for the experimental part: as §1, §2
The test system of data set [6] is human PBMC. The experiment in a line: MTT viability of human PBMC. The settings on record: 10 μM, 18 h incubation. In kind it is cell-based.

With `CCOC(=O)c1nc(Nc2cc(Oc3ccccc3)cc([N+](=O)[O-])c2)c2ccccc2n1` [Compound 1a, Ethyl 4-((3-nitro-5-phenoxyphenyl)amino)quinazoline-2-carboxylate], in the data set on human PBMC [1] (Homo sapiens, PBMC, 18 h, 0.5 μM, IL-8 release, normalized to LPS positive control=100), the IL-8 release (% of LPS control) at 0.5 µM turned out to be 22.2%. In the data set with human PBMC [1] (hPBMC, graded concentrations), the “Concentration inducing detectable levels of IL-8” value is “below 1 μM”. For the same compound, the “IL-8 release in presence of polymyxin B” value in the data set with human PBMC [1] (polymyxin B 10 μg/mL, overnight) is given as “not reduced”. Also, the “HepG2 MT” value with HepG2 cells was 93.5. In data set [2], the “NF-κB activation (SEAP) across TLR transfected cells” value was “only those expressing TLR4/MD-2/CD14 responded”. Besides, the “Dependence of IL-6 production on CD14 and MD-2” value with mBMDC [3] (10 μM, mBMDC genetically deficient for CD14 or MD-2) was “not to be dependent on CD14, but dependent on MD-2”. For the same compound, the “IL-6 secretion induced in mBMDC on genetic disruption of TLR4” value with mBMDC [3] (10 μM, wild type vs TLR4 deficient mice) is reported as “completely abrogated”. In addition, the “Concentration inducing detectable levels of IL-6” value in the data set with mBMDC [3] (mBMDC, graded concentrations, compared with IL-8 in hPBMC) is “higher concentrations were required”. Also, the “Expression of co-stimulatory molecules CD40, CD80, CD86” value with mBMDC [4] (TLR4 deficient mBMDC) is given as “not in the TLR4 deficient cells”; in the data set with mBMDC [4] (wild type mBMDC), “increased”. Further, in the data set with human PBMC [5], the “Expression of CD80 and CD83” value is “increased expression of CD80 and CD83”. In addition, the “Viability by MTT assay” value in the data set on human PBMC [6] is listed as 112±2.1%.

For the origin of these results see patent US20150132342A1, “NOVEL IMMUNE ACTIVATORS: SUBSTITUTE 4-AMINOQUINAZOLINES” (The Regents of the University of California, priority 2013, published 2015).
